≈ marks a conversion by molar mass, not a printed value. Where two headings read alike, the source gives them in different places.
Tests used:
[1] = tested on: Staphylococcus aureus MB6266 (MRSA COL); assay: Nargenicin antibacterial assay (MIC), S. aureus; type: cell-based; details: * = some reduction of growth versus control at […]; for MIC: Staphylococcus aureus, MRSA, read-out: S. aureus COL (MIC), MHII broth + 50% human serum; for S. aureus COL (MIC): MHII broth + 50% human serum
[2] = tested on: Pseudomonas aeruginosa MB5890 (CB1101, efflux-deleted); assay: microbe, parasite or virus in culture; type: cell-based; details: * = some reduction of growth versus control at […]; for MIC: Pseudomonas aeruginosa, read-out: P. aeruginosa MB5890 efflux-del (MIC), MHII broth; for P. aeruginosa MB5890 efflux-del (MIC): MHII broth
[3] = tested on: Streptococcus pneumoniae MB6357 (CL 2883); assay: Nargenicin antibacterial assay (MIC), S. pneumoniae; type: cell-based; details: * = some reduction of growth versus control at […]; for MIC: Streptococcus pneumoniae, read-out: S. pneumoniae MB2883 (MIC), Isosensitest broth; for S. pneumoniae MB2883 (MIC): Isosensitest broth
[4] = molecular target: T1, S. aureus DnaE (DNA polymerase III α-subunit homolog from Staphylococcus aureus) (Staphylococcus aureus, UniProt Q5HF71); assay: biochemical; type: biochemical
T1 construct: SaDnaE (S. aureus DnaE residues 1-1065); 6xHis (N); made in house; host or cells: E. coli BL21-AI
T1 sequence (Q5HF71 1-1065): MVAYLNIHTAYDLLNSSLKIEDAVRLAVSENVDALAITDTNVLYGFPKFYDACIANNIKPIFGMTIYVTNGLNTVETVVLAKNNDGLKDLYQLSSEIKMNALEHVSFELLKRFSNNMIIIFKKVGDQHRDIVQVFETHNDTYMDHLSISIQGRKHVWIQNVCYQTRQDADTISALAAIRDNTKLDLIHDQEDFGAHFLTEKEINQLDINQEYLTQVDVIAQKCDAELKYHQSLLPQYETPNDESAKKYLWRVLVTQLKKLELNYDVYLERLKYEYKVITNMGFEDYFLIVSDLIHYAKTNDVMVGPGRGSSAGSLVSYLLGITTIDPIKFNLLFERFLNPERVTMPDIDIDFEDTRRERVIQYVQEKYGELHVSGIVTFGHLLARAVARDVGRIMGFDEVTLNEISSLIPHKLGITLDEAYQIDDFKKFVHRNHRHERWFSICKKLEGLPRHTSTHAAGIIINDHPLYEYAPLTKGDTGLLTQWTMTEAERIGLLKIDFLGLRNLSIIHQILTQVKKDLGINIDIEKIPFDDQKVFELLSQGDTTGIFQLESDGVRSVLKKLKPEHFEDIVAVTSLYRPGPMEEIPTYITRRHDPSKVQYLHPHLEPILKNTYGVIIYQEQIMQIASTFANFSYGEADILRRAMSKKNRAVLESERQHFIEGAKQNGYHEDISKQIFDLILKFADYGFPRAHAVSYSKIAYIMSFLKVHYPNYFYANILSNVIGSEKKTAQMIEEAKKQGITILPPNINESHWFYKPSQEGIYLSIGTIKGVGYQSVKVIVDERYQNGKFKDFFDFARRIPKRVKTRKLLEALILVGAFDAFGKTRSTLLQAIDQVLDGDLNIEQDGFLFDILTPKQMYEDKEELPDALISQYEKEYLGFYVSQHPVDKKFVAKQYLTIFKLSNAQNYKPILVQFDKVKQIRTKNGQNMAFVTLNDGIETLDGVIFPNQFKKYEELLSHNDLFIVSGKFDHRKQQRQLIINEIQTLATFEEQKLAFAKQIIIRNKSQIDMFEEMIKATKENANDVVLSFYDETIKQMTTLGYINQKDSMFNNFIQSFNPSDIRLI
Method in brief: (§1)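 His-tagged E. coli DnaE (residues 1-1160, 0.8 μg/ml) or S. aureus DnaE (residues 1-1065, 0.05 μg/ml) incubated 30 min at 30° C. with activated calf thymus DNA, 0.025 mM dATP/dGTP/dCTP and 0.011 mM 3H-dTTP in Tris pH 7.5/Mg acetate. TCA-precipitated labelled DNA counted.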

[5] = tested on: Escherichia coli MB5747 (LS 883, tolC); assay: microbe, parasite or virus in culture; type: cell-based; details: * = some reduction of growth versus control at […]; for MIC: Escherichia coli, read-out: E. coli LS883 tolC (MIC), MHII broth; for E. coli LS883 tolC (MIC): MHII broth
[6] = molecular target: T2, E. coli DnaE (DNA polymerase III α-subunit from Escherichia coli) (Escherichia coli, UniProt P10443); assay: In vitro DnaE single enzyme assay (E. coli); type: biochemical
T2 construct: EcDnaE (E. coli DnaE residues 1-1160); 6xHis (N); made in house; host or cells: E. coli BL21(DE3)
T2 sequence (P10443 whole entry, the tested form may be a part): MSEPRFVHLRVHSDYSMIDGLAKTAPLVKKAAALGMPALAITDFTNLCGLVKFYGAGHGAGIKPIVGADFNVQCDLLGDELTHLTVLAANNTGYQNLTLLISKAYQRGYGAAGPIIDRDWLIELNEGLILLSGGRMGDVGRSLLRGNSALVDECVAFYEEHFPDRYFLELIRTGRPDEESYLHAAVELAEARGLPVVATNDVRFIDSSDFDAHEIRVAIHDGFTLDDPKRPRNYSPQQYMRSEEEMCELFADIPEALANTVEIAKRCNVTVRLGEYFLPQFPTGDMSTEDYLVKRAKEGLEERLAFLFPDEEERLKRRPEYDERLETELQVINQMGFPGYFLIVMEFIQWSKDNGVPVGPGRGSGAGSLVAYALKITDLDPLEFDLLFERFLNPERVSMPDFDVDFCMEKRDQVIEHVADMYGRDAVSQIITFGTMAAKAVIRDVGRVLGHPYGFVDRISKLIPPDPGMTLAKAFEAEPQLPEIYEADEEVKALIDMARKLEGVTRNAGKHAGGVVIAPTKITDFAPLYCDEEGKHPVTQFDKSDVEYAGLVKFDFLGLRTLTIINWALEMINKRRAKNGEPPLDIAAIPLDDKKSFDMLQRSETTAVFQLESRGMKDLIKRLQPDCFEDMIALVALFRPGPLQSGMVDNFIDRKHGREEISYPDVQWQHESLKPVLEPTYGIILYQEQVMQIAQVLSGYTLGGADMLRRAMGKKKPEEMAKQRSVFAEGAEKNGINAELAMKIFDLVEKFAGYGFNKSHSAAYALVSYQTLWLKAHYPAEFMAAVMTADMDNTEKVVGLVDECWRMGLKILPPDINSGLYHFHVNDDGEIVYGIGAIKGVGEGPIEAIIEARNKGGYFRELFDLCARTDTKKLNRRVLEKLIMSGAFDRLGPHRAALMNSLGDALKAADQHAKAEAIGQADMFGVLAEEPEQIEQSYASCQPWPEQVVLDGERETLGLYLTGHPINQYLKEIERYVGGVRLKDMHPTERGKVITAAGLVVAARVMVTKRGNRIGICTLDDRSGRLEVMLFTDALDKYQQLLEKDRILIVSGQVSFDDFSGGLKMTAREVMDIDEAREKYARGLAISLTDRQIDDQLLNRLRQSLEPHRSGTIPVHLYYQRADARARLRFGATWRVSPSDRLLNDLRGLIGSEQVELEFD
Method in brief: as §1

[7] = read-out: E. coli DnaE IC50 (converted)

## CNS(=O)(=O)CCNC(=O)O[C@H](C)[C@H]1OC(=O)[C@@H](OC)C[C@H]2C=C[C@H]3[C@H]4O[C@]2(/C(C)=C/[C@H]1C)[C@@H]3[C@H](O)[C@@H](C)[C@H]4OC(=O)c1ccc[nH]1 [Example 13]
[1]
  MIC: 32 µg/mL
[2]
  MIC: > 128 µg/mL
[3]
  MIC: > 128 µg/mL
[4]; S. aureus DnaE IC50
  IC50: < 0.00883 µM
[5]
  MIC: 8 µg/mL (≈ 11.8 µM)
[6]; [7]
  IC50: > 147 µM

## CO[C@H]1CC2C=C[C@H]3[C@H]4O[C@]2(/C(C)=C/[C@@H](C)[C@@H]([C@@H](C)O)OC1=O)[C@@H]3[C@H](OC(=O)NC1CC1)[C@@H](C)[C@H]4OC(=O)c1ccc[nH]1 (stereo partly drawn) [Example 39]
[1]
  MIC: > 128 µg/mL
[2]
  MIC: > 128 µg/mL
[3]
  MIC: > 128 µg/mL
[4]; read-out: S. aureus DnaE IC50 (converted)
  IC50: 15 µM
[5]
  MIC: > 128 µg/mL
[6]; E. coli DnaE IC50
  IC50: > 167 µM

## CO[C@H]1C[C@H]2C=CC3C4[C@H](O)[C@@H](C)[C@@H](OC(=O)c5ccc[nH]5)[C@@H]3O[C@]42/C(C)=C/[C@@H](C)[C@@H]([C@@H](C)OC(=O)C(=O)NC2CC2)OC1=O [Example 117]
[1]
  S. aureus COL (MIC): ≤0.125 µg/mL
[2]
  P. aeruginosa MB5890 efflux-del (MIC): 4 µg/mL
[3]
  S. pneumoniae MB2883 (MIC): 128 µg/mL
[4]
  S. aureus DnaE IC50: 0.0007 µg/mL
[5]
  E. coli LS883 tolC (MIC): ≤0.125 µg/mL
[6]
  E. coli DnaE IC50: 11 µg/mL

## CO[C@H]1C[C@H]2C=CC3C4[C@H](O)[C@@H](C)[C@@H](OC(=O)c5ccc[nH]5)[C@@H]3O[C@]42/C(C)=C/[C@@H](C)[C@@H]([C@@H](C)OC(=O)C(=O)NCc2ccncc2)OC1=O [Example 115]
[1]
  S. aureus COL (MIC): 0.5 µg/mL
[2]
  P. aeruginosa MB5890 efflux-del (MIC): 8 µg/mL
[3]
  S. pneumoniae MB2883 (MIC): >64 µg/mL
[4]
  S. aureus DnaE IC50: <0.006 µg/mL
[5]
  E. coli LS883 tolC (MIC): 0.5 µg/mL
[6]
  E. coli DnaE IC50: 9 µg/mL

## CO[C@H]1C[C@H]2C=CC3C4[C@H](O)[C@@H](C)[C@@H](OC(=O)c5ccc[nH]5)[C@@H]3O[C@]42/C(C)=C/[C@@H](C)[C@@H]([C@@H](C)OS(=O)(=O)O)OC1=O [Example 198]
[1]
  MIC: 4 µg/mL
[2]
  MIC: 64 µg/mL (≈ 107 µM)
[3]
  MIC: > 128 µg/mL
[4]; S. aureus DnaE IC50
  IC50: < 0.0101 µM
[5]
  MIC: 4 µg/mL (≈ 6.72 µM)
[6]; [7]
  IC50: 20.1 µM

## CO[C@H]1C[C@H]2C=CC3C4[C@H](O)[C@@H](C)[C@@H](OC(=O)c5ccc[nH]5)[C@@H]3O[C@]42/C(C)=C/[C@@H](C)[C@@H]([C@@H](C)OC(=O)n2nnnc2N)OC1=O [Example 64]
[1]
  MIC: 4 µg/mL
[2]
  MIC: 128 µg/mL (≈ 204 µM)
[3]
  MIC: > 128 µg/mL
[4]; S. aureus DnaE IC50
  IC50: < 0.00957 µM
[5]
  MIC: 4 µg/mL (≈ 6.38 µM)
[6]; [7]
  IC50: 46.3 µM

## CO[C@H]1CC2C=C[C@H]3[C@H]4O[C@]2(/C(C)=C/[C@@H](C)[C@@H]([C@@H](C)OC(=O)NN)OC1=O)[C@@H]3[C@H](O)[C@@H](C)[C@H]4OC(=O)c1ccc[nH]1 (stereo partly drawn) [Example 18]
[1]
  MIC: 8 µg/mL
[2]
  MIC: > 128 µg/mL
[3]
  MIC: 128 µg/mL (≈ 223 µM)
[4]; S. aureus DnaE IC50
  IC50: < 0.0105 µM
[5]
  MIC: 4 µg/mL (≈ 6.97 µM)
[6]; [7]
  IC50: 105 µM

## CO[C@H]1C[C@H]2C=CC3C4[C@H](O)[C@@H](C)[C@@H](OC(=O)c5cc(-c6cccnc6)c[nH]5)[C@@H]3O[C@]42/C(C)=C/[C@@H](C)[C@@H]([C@@H](C)O)OC1=O [Example 164, (3R,4S,7S,8aS,11R,12R,13R,14R,14bS,E)-14-hydroxy-4-((R)-1-hydroxyethyl)-7-methoxy-1,3,13-trimethyl-6-oxo-3,4,6,7,8,8a,10a,11,12,13,14,14a-dodecahydro-11,14b-epoxynaphtho[2,1-e]oxecin-12-yl 4-(pyridin-3-yl)-1H-pyrrole-2-carboxylate]
[1]
  MIC: > 128 µg/mL
[2]
  MIC: > 128 µg/mL
[3]
  MIC: 32 µg/mL (≈ 54 µM)
[4]; S. aureus DnaE IC50
  IC50: 10.1 µM
[5]
  MIC: 16 µg/mL (≈ 27 µM)
[6]; E. coli DnaE IC50
  IC50: > 169 µM

## CO[C@H]1C[C@H]2C=CC3C4[C@H](O)[C@@H](C)[C@@H](OC(=O)c5ccc[nH]5)[C@@H]3O[C@]42/C(C)=C/[C@@H](C)[C@@H]([C@@H](C)OC(=O)C(=O)OCc2ccncc2)OC1=O.O=C(O)C(F)(F)F [Example 69]
[1]
  MIC: 2 µg/mL
[2]
  MIC: 32 µg/mL
[3]
  MIC: > 128 µg/mL
[4]; S. aureus DnaE IC50
  IC50: < 0.00757 µM
[5]
  MIC: 1 µg/mL
[6]; [7]
  IC50: 6.31 µM

## CO[C@H]1C[C@H]2C=C[C@H]3[C@H]4O[C@]2(/C(C)=C/[C@@H](C)[C@@H]([C@@H](C)O)OC1=O)[C@@H]3[C@H](O)[C@@H](C)[C@H]4OC(N)=O [Example 197]
[1]
  MIC: 128 µg/mL
[2]
  MIC: 2 µg/mL (≈ 4.3 µM)
[3]
  MIC: > 128 µg/mL
[4]; S. aureus DnaE IC50
  IC50: 0.0236 µM
[5]
  MIC: 2 µg/mL (≈ 4.3 µM)
[6]; [7]
  IC50: 81.6 µM

## CO[C@H]1C[C@H]2[C@H](O)C[C@H]3[C@H]4O[C@]2(/C(C)=C/[C@@H](C)[C@@H]([C@@H](C)O)OC1=O)[C@@H]3[C@H](O)[C@@H](C)[C@H]4OC(=O)c1ccc[nH]1 [Example 191]
[1]
  MIC: > 128 µg/mL
[2]
  MIC: > 128 µg/mL
[3]
  MIC: > 128 µg/mL
[4]; S. aureus DnaE IC50
  IC50: 7.5 µM
[5]
  MIC: 128 µg/mL (≈ 240 µM)
[6]; [7]
  IC50: > 187 µM

## CO[C@H]1C[C@H]2C=C[C@H]3[C@H]4O[C@]2(/C(C)=C/[C@@H](C)[C@@H]([C@@H](C)OC(=O)NC(C)C)OC1=O)[C@@H]3[C@H](O)[C@@H](C)[C@H]4OC(=O)c1ccc[nH]1 [Example 9]
[1]
  MIC: 8 µg/mL
[2]
  MIC: > 128 µg/mL
[3]
  MIC: 32 µg/mL (≈ 53.3 µM)
[4]; S. aureus DnaE IC50
  IC50: 0.0333 µM
[5]
  MIC: 8 µg/mL (≈ 13.3 µM)
[6]; [7]
  IC50: 49.9 µM

## CO[C@H]1C[C@H]2C=C[C@H]3[C@H]4O[C@]2(/C(C)=C/[C@@H](C)[C@@H]([C@@H](C)OC(=O)NNC(N)=O)OC1=O)[C@@H]3[C@H](O)[C@@H](C)[C@H]4OC(=O)c1ccc[nH]1 [Example 23]
[1]
  MIC: 8 µg/mL
[2]
  MIC: 64 µg/mL (≈ 104 µM)
[3]
  MIC: > 128 µg/mL
[4]; S. aureus DnaE IC50
  IC50: < 0.00973 µM
[5]
  MIC: 4 µg/mL (≈ 6.49 µM)
[6]; [7]
  IC50: 48.6 µM

## CO[C@H]1C[C@H]2C=C[C@H]3[C@H]4O[C@]2(/C(C)=C/[C@@H](C)[C@@H](c2ccccc2)OC1=O)[C@@H]3[C@H](O)[C@@H](C)[C@H]4OC(=O)c1ccc[nH]1 [Example 51]
[1]
  MIC: 0.25 µg/mL
[2]
  MIC: > 128 µg/mL
[3]
  MIC: > 128 µg/mL
[4]; S. aureus DnaE IC50
  IC50: < 0.011 µM
[5]
  MIC: > 128 µg/mL
[6]; [7]
  IC50: 14.6 µM
